{"source": "PubChem BioAssay AID651689", "about": "(The Scripps Research Institute Molecular Screening Center, 2012)", "note": "Activity calls are given as the source filed them. No rule for the calls is given here."}
{"target": "Mu-type opioid receptor (Homo sapiens) (UniProt P35372)", "sequence (P35372 whole entry, looked up)": "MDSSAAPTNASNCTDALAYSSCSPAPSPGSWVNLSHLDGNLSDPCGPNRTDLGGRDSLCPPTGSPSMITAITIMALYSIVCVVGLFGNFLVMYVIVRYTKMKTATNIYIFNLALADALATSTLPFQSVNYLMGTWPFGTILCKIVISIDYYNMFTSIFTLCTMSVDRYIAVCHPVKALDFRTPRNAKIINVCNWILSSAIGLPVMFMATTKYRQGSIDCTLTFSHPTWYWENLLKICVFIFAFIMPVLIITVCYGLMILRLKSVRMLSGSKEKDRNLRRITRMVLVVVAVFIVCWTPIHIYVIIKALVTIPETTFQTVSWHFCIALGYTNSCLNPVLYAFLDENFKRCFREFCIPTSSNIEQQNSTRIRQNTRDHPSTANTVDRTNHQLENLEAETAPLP", "experiment": "OPRM1 activation in single-receptor cells, late-stage follow-up, counter-screen for OPRM1-OPRD1 heterodimer activator project, cell-based, luminescence, dose response (AID 651689)", "settings": "OPRM1 cell line, luminescence activation counterscreen"}
{"smiles": "CCOC(=O)C1(CCc2ccccc2)CCN(Cc2ccc(OC(C)C)c(C#N)c2)CC1", "EC50": "> 40 µM (inactive)"}
{"smiles": "CCOC(=O)C1(CCc2ccccc2)CCN(Cc2ccc(NC(C)=O)cc2)CC1", "EC50": "inactive"}
{"smiles": "CCOC(=O)C1(Cc2ccccc2)CCN(Cc2cccn2-c2cccnc2)CC1", "EC50": "> 40 µM (inactive)"}
{"smiles": "CCOC(=O)C1(CCOc2ccccc2)CCN(Cc2ccc(O)c(OC)c2)CC1", "EC50": "> 40 µM (inactive)"}
{"smiles": "OCC1(CCc2ccccc2)CCN(Cc2cc(F)ccc2-n2cccn2)CC1", "EC50": "> 40 µM (inactive)"}
{"smiles": "CCOC(=O)C1(CCCc2ccccc2)CCN(Cc2cnn(C)c2)CC1", "EC50": "> 40 µM (inactive)"}
{"smiles": "CCOC(=O)C1(CCOc2ccccc2)CCN(Cc2cccn2-c2cccnc2)CC1", "EC50": "inactive"}
{"smiles": "CCOC(=O)C1(CCc2ccccc2)CCN(Cc2cc(C)cc(C)c2)CC1", "EC50": "> 40 µM (inactive)"}
{"smiles": "CCOC(=O)C1(CCc2ccccc2)CCN(Cc2ccccc2C)CC1", "EC50": "inactive"}
{"smiles": "CCOC(=O)C1(Cc2ccccc2)CCN(Cc2cccn2-c2nccs2)CC1", "EC50": "> 40 µM (inactive)"}
{"smiles": "CCOC(=O)C1(CC2CCCCO2)CCN(Cc2c(C)cc(C)cc2-n2cccn2)CC1", "note": "(stereo unspecified)", "EC50": "7.4 µM"}
